Data reported in patent publication US20090099135A1, “Pest control compositions and methods” (priority 2007, published 2009).
Values belong to the molecule of their own block, whether it stands above or below them.

Tests used:
tyramine receptor (TyrR) [1] = biological target: T1, tyramine receptor (TyrR) (Drosophila melanogaster, UniProt P22270); test: Saturation binding of 3H-tyramine to membranes of Schneider cells expressing tyramine receptor; settings: membranes of cells stably transfected with pAcB-TyrR
T1 construct: oligonucleotides that are used to amplify the open reading frame of the Drosophila tyramine receptor (TyrR); expressed in transfected cells
T1 sequence (P22270 27-601): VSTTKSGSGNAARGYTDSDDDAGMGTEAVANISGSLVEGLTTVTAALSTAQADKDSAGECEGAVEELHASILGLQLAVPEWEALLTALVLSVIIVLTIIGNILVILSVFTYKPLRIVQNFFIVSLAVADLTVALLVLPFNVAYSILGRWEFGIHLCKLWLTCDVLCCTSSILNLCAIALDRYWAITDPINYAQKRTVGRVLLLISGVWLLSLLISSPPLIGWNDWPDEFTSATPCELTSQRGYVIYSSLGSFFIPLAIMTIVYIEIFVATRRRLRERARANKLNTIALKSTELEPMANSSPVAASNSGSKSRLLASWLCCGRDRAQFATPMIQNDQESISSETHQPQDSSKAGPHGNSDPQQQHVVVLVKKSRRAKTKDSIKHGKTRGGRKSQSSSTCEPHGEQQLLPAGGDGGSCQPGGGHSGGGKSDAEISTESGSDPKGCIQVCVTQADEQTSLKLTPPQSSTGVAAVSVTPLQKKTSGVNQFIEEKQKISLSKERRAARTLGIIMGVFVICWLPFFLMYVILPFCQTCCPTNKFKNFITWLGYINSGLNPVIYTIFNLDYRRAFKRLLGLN
Description: To study the kinetics of the tyramine receptor in stably transfected cells with pAcB-TyrR, crude membrane fractions are prepared from the transfected cells and used to calculate the equilibrium dissociation constant (Kd), Maximum Binding Capacity (Bmax), equilibrium inhibitor dissociation constant (Ki) and EC50 (effective concentration at which binding is inhibited by 50%). A preliminary study to determine the optimum concentration of membrane protein for receptor binding activity is performed. In this study, different concentrations of protein (about 10-50 μg/reaction) are incubated in about 1 ml binding buffer (50 mM Tris, pH 7.4, 5 mM MgCl2 and 2 mM ascorbic acid). The reaction is initiated by the addition of about 5 nM ^3H-tyramine with and without about […] unlabeled tyramine. After about 1 hr incubation at room temperature, reactions are terminated by filtration through GF/C filters (VWR), which have been previously soaked in about 0.3% polyethyleneimine (PEI). The filters are washed one time with about 4 ml ice cold Tris buffer and air dried before the retained radioactivity is measured using LSC. […]
To determine Bmax and Kd values for tyramine receptor (TyrR) in membranes expressing TyrR, saturation binding experiments are performed. […] Binding data is analyzed by curve fitting (GraphPad software, Prism) and the Kd for tyramine binding to its receptor is determined. […]

tyramine receptor = biological target: T2, tyramine receptor (Drosophila melanogaster, UniProt P22270); test: Whole cell 3H-tyramine binding in Schneider cells transfected with tyramine receptor
T2 construct: oligonucleotides that are used to amplify the open reading frame of the Drosophila tyramine receptor (TyrR); expressed in transfected cells
T2 sequence (P22270 27-601): T1 sequence (P22270 27-601)
Description: Cells transfected with the tyramine receptor (about 1×10^6 cells/ml) are cultured in each well of a multi-well plate. About 24 hours after plating the cells, the medium is withdrawn and replaced with about 1 ml insect saline (about 23 C). Different concentrations of ^3H-tyramine (about 0.1-10 nM) are added with and without about 10 μM unlabeled tyramine and incubated at room temperature (RT). After about a 20 minute incubation, the reaction is stopped by rapid aspiration of the saline and at least one wash with about 2 ml insect saline (about 23 C). Cells are solubilized in about 300 μl 0.3M NaOH for about 20 min at RT. Solubilized cells are transferred into about 4 ml Liquid Scintillation Solution (LSS) and vigorously vortexed for about 30 sec before counting the radioactivity using a Liquid Scintillation P-counter (Beckman, Model LS1801) (LSC).
Receptor specific binding data is expressed as fmol specific binding per 1×10^6 cells and measured as a function of ^3H-tyramine concentration. Specific binding values are calculated as the difference between values in the absence of and values in the presence of about 10 μM unlabeled tyramine. The maximum specific binding occurs at about 5 nM ^3H-tyramine.

Aedes aegypti = test: Pesticidal effect (KD) against Aedes aegypti; type: in vivo
Description: With reference to FIG. 4A, the pesticidal effect against Aedes aegypti was determined for Blend 23 (labeled “HL1”) and the composition including CL and Blend 23.
Similarly, with reference to FIG. 4B, the pesticidal effect against Aedes aegypti was determined for Blend 23 (labeled “HL1”) and the composition including CL and Blend 23.
Similarly, with reference to FIG. 4C, the pesticidal effect against Aedes aegypti was determined for Blend 23 (labeled “HL1”) and the composition including Imidacloprid and Blend 23.

Periplaneta americana = test: Pesticidal effect (mortality) against Periplaneta americana; type: in vivo; settings: Blend 23 5%
Description: With reference to FIG. 6A, the pesticidal effect against Periplaneta americana was determined for Blend 23 (labeled “HL1”) and the composition including CL and Blend 23.
With reference to FIG. 6B, the pesticidal effect against Periplaneta americana was determined for Blend 23 (labeled “HL1”) and the composition including Imidacloprid and Blend 23.

Culex quinquefasciatus = test: Repellency effect against Culex quinquefasciatus (biting counts on volunteers' legs); type: in vivo
Description: The repellency of exemplary compositions of the present invention are compared to the repellency of their individual ingredients, and to a non-treated control. Southern house mosquitoes, Culex quinquefasciatus, are obtained as test organisms. Multiple human evaluators test each treatment in a replicated experiment. Experimentation is conducted in a laboratory using multiple-chambered, plexiglass modules, each chamber stocked with about 2-10 day-old colony-reared female mosquitoes. The modules are equipped with sliding doors to expose the mosquitoes to the legs of three volunteers. Treatments are applied at about 28.6 μl to 12 cm^2 rectangular sections of skin located directly beneath the chamber openings. Each volunteer conducts 2-minute biting counts for each treatment at five time intervals: 0, 1, 2, 4 & 6 hours post-treatment. New mosquitoes are stocked into the chamber for each time interval. Ambient temperature and humidity data is recorded with a HOBO datalogger. Percent repellency is determined according to the following formula: Control−Treatment/Control X 100.

aphids (on cotton) = test: Interim field plot ratings, South Georgia: aphids on cotton; type: in vivo; settings: rate not given; 1 wk after treatment
TyrR = biological target: T3, TyrR (Drosophila melanogaster, UniProt P22270); test: TyrR competition binding assay (% binding inhibition)
T3 sequence (P22270 27-601): T1 sequence (P22270 27-601)
Description: When the chemical(s) and compound(s) are combined to provide the compositions of the present invention, there is a synergistic effect.
(§1) To determine the affinities of several ligands for TyrR, increasing concentration of several compounds are tested for their ability to inhibit binding of about 2 nM ^3H-tyramine. For both saturation and inhibition assays total and non-specific binding is determined in the absence and presence of about 10 μM unlabeled-tyramine, respectively. Receptor binding reactions are incubated for about 1 hour at room temperature (RT) in restricted light. Reactions are terminated by filtration through GF/C filters (VWR), which have been previously soaked in about 0.3% polyethyleneimine (PEI). The filters are washed one time with about 4 ml ice cold Tris buffer and air dried before retained radioactivity is measured using LSC. Binding data is analyzed by curve fitting (GraphPad software, Prism).

Thrips (on cotton) = test: Interim field plot ratings, South Georgia: thrips on cotton; type: in vivo; settings: rate not given; 1 wk after treatment
[2] = Interim field plot ratings, South Georgia: flower damage rating; type: in vivo; settings: rate not given; 1 wk after treatment
Whitefly (on zucchini) = test: Interim field plot ratings, South Georgia: whitefly on zucchini; type: in vivo; settings: rate not given; 1 wk after treatment
[3] = tested on: Blattella germanica (German cockroaches); test: Pesticidal effect against German cockroaches (KD and 100% kill time); type: in vivo
Description: With reference to Table 15, the pesticidal effect against Blattella germanica (German cockroaches) was determined for DM, Blend 12, and the composition including DM and Blend 12.
A synergistic effect was shown for the combination treatment that results in an average KD of the insects in 5 sec, and 100% killing of the insects in 17 seconds.

Drosophila sp. = test: Pesticidal effect (KD) against Drosophila sp.; type: in vivo; settings: FIG. 4D; Imidacloprid 50 ppm; Blend 23 2.5%; combination of both
Description: Similarly, with reference to FIG. 4D, the pesticidal effect against Drosophila sp. was determined for Blend 23 (labeled “HL1”) and the composition including Imidacloprid and Blend 23.

tyramine receptor (TyrR) [4] = biological target: T1, tyramine receptor (TyrR); test: Inhibition binding of 3H-tyramine to membranes of Schneider cells expressing tyramine receptor; settings: compared with tyramine
Description: To study the kinetics of the tyramine receptor in stably transfected cells with pAcB-TyrR, crude membrane fractions are prepared from the transfected cells and used to calculate the equilibrium dissociation constant (Kd), Maximum Binding Capacity (Bmax), equilibrium inhibitor dissociation constant (Ki) and EC50 (effective concentration at which binding is inhibited by 50%). A preliminary study to determine the optimum concentration of membrane protein for receptor binding activity is performed. In this study, different concentrations of protein (about 10-50 μg/reaction) are incubated in about 1 ml binding buffer (50 mM Tris, pH 7.4, 5 mM MgCl2 and 2 mM ascorbic acid). The reaction is initiated by the addition of about 5 nM ^3H-tyramine with and without about […] unlabeled tyramine. After about 1 hr incubation at room temperature, reactions are terminated by filtration through GF/C filters (VWR), which have been previously soaked in about 0.3% polyethyleneimine (PEI). The filters are washed one time with about 4 ml ice cold Tris buffer and air dried before the retained radioactivity is measured using LSC. Binding data is analyzed by curve fitting (GraphPad software, Prism). […] Therefore, about 10 μg protein/reaction is used.
as §1

Structure (SMILES): NCCc1ccc(O)cc1 [Blend 3H-tyramine, ^3H-tyramine]
Bmax (tyramine receptor (TyrR) [1]): about 0.679 μmol/mg protein
Kd (tyramine receptor (TyrR) [1]): ~1.26 nM
concentration at which maximum specific binding occurs (tyramine receptor; whole transfected cells): about 5 nM

Structure (SMILES): CN/C(=N\[N+](=O)[O-])NCc1cnc(Cl)s1 [CL, clothianidin]
KD of target insect (Aedes aegypti; FIG. 4A, CL alone 500 ppm, CL 167 ppm combined with 2.5% Blend 23): no KD
KD of target insect (Aedes aegypti; FIG. 4B, CL alone 250 ppm, CL 167 ppm combined with 2.5% Blend 23): no KD
mortality 30 minutes post-treatment (Periplaneta americana; FIG. 6A, CL 0.05%, combination of both): no mortality

Structure (SMILES): CCN(CC)C(=O)c1cccc(C)c1 [DEET, N,N-DIETHYL-3-METHYLBENZAMIDE]
Percent repellency, 0 (Culex quinquefasciatus; 0 hours post-treatment): 40%
Percent repellency, 1 Hour (Culex quinquefasciatus; 1 hour post-treatment): 20%
Percent repellency, 2 Hours (Culex quinquefasciatus; 2 hours post-treatment): 10%
Percent repellency, 4 Hours (Culex quinquefasciatus; 4 hours post-treatment): 5%
Percent repellency, 6 Hours (Culex quinquefasciatus; 6 hours post-treatment): 0%
Activity Ratio (repellency at 1 hour) (Culex quinquefasciatus; effect of composition (5% DEET and 95% Blend 9) divided by effect of comparison composition): (1.00)/(0.20) = 5.0
Synergy Coefficient (repellency at 1 hour) (Culex quinquefasciatus; of composition (5% DEET and 95% Blend 9) relative to comparison composition): 100

Structure (SMILES): CC1(C)[C@H](C(=O)O[C@H](C#N)c2cccc(Oc3ccccc3)c2)[C@@H]1C=C(Br)Br [DM, deltamethrin]
aphids (on cotton) Adults, insect count (aphids (on cotton)): 15
aphids (on cotton) Nymph, insect count (aphids (on cotton)): 26
% TyrR Binding Inhibition (TyrR): 10%
Thrips (on cotton), insect count (Thrips (on cotton)): 13
Flower damage (1-5 rating scale; 1 = no damage) [2]: 2.2
Whitefly (on zucchini) Adult, insect count (Whitefly (on zucchini)): 18
Whitefly (on zucchini) Nymph, insect count (Whitefly (on zucchini)): 142
100% Kill (time) ([3]; Example 4, DM 0.037 mg/cm^2, Blend 12 1.9 mg/cm^2): 15 min
100% Kill (time) ([3]; Table 16, DM 0.037 mg/cm^2): 12 min

Structure (SMILES): O=[N+]([O-])NC1=NCCN1Cc1ccc(Cl)nc1 [Imidacloprid, 1-[(6-Chloro-3-pyridinyl)methyl]-N-nitro-2-imidazolidinimine]
aphids (on cotton) Adults, insect count (aphids (on cotton)): 0.3
aphids (on cotton) Nymph, insect count (aphids (on cotton)): 1.6
KD of target insect at 30 seconds post-treatment (Drosophila sp.): 0%
Thrips (on cotton), insect count (Thrips (on cotton)): 9
KD of target insect at 30 seconds post-treatment (Aedes aegypti; FIG. 4C, Imidacloprid 250 ppm, Blend 23 2.5%, combination of both): 20%
KD of target insect (Aedes aegypti; FIG. 5, Imidacloprid 500 ppm, B5028 5%, combination of both): no KD
Flower damage (1-5 rating scale; 1 = no damage) [2]: 2.0
Whitefly (on zucchini) Adult, insect count (Whitefly (on zucchini)): 16
Whitefly (on zucchini) Nymph, insect count (Whitefly (on zucchini)): 5
mortality 30 minutes post-treatment (Periplaneta americana; FIG. 6B, Imidacloprid alone 0.05%, 0.033%, 0.01%, Imidacloprid 0.033% combined with 5% Blend 23): no mortality

efficiency at displacing 3H-tyramine binding (tyramine receptor (TyrR) [4]): less efficient than tyramine
Structure (SMILES): NCC(O)c1ccc(O)cc1 (stereo not shown) [Octopamine]

Structure (SMILES): NCCc1ccc(O)cc1 [Tyramine (TA), Tyramine]
% TyrR Binding Inhibition (TyrR): 75%
response of untransfected cells (tyramine receptor; concentrations as high as about 100 μM): do not respond

efficiency at displacing 3H-tyramine binding (tyramine receptor (TyrR) [4]): less efficient than tyramine
Structure (SMILES): NCCc1ccc(O)c(O)c1 [dopamine, Dopamine]

efficiency at displacing 3H-tyramine binding (tyramine receptor (TyrR) [4]): less efficient than tyramine
Structure (SMILES): NCCc1c[nH]c2ccc(O)cc12 [serotonin, Serotonin]
